Assay results from BindingDB's records for patent US20260028352 (Suzhou Langrui Biopharmaceutical, 2026).

What was measured:
[1] = target: High affinity nerve growth factor receptor (Homo sapiens, UniProt P04629); assay: Inhibitory Activity of Compounds Against TRKA and TRKA(F589L) Kinases
Procedure: (§1) Kinase Assay Process: 1× Kinase buffer was prepared. […] 10 μL of the 2.5× final concentration kinase solution was added to the compound wells and the positive control wells, and 10 μL of 1× Kinase buffer was added to the negative control wells. The plate was centrifuged at 1000 rpm for 30 seconds, vortexed for mixing, and then incubated at room temperature for 10 minutes. A mixture of 5/3× final concentration of ATP and Kinase Substrate 22 was prepared using 1× Kinase buffer. 15 μL of the mixture of the 5/3× final concentration ATP and the substrate was added to initiate the reaction, the 384-well plate was centrifuged at 1000 rpm for 30 seconds, vortexed for mixing, and incubated at room temperature for the required time. 30 μL of the termination solution was added to stop the kinase reaction, the plate was centrifuged at 1000 rpm for 30 seconds, and vortexed for mixing. The conversion rate was measured using the Caliper EZ Reader.

[2] = target: High affinity nerve growth factor receptor NTRK1 [F589L] (UniProt P04629, F589L); assay: as above
Procedure: as §1

Chain of High affinity nerve growth factor receptor NTRK1 [F589L] (P04629 33-796 F589L limits assumed): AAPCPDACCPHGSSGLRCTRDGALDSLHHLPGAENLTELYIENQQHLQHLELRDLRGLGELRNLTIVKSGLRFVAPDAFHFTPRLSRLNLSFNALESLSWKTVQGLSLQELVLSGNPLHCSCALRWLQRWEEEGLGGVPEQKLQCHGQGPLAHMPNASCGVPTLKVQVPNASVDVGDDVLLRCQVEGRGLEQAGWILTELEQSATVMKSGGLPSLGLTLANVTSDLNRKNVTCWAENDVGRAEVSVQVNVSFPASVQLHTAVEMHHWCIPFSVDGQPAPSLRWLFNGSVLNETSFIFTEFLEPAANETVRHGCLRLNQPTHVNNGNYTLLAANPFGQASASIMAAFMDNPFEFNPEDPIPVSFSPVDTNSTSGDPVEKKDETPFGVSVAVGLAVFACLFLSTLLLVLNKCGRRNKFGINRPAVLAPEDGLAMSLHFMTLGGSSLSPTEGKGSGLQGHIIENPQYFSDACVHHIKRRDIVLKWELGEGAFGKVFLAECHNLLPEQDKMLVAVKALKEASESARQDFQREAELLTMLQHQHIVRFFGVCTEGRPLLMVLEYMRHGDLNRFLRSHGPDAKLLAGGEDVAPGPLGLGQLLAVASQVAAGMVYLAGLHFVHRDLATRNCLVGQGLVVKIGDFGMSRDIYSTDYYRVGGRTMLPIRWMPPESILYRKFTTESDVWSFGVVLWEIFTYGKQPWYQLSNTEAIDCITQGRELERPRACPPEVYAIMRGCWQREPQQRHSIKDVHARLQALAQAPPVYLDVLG
Chain of High affinity nerve growth factor receptor (P04629 whole entry): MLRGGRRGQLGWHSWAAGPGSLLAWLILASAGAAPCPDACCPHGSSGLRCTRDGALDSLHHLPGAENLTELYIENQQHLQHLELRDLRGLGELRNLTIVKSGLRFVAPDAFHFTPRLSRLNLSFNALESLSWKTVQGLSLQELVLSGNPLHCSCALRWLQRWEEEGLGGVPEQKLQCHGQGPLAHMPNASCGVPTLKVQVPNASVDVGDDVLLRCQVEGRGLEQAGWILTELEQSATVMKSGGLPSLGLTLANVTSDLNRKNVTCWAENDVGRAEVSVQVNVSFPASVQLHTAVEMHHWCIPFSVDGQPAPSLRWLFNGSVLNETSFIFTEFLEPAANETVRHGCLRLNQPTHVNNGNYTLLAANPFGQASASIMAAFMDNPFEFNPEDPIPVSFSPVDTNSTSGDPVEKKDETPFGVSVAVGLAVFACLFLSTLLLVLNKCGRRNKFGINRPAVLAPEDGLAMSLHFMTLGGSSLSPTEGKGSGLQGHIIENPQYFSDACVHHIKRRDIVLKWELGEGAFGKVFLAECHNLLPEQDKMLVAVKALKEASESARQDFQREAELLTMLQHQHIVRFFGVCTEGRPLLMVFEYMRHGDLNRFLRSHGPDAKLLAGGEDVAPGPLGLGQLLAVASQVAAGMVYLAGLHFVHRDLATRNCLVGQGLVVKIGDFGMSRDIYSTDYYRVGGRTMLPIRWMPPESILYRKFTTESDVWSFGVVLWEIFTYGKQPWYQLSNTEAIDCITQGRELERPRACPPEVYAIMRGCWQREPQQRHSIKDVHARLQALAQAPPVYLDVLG

`C[C@H]1Nc2ccc3ncc(n3n2)-c2cc(ncn2)CCOc2ccccc21` [US20260028352, Example I-32] was tested, and the IC50 [1] was under 3 nM and the IC50 [2] was under 5 nM.
With `C[C@@H]1Cc2ccnc(c2)-c2cnc3ccc(nn23)N[C@H](C)c2cc(F)ccc2O1` [US20260028352, Example I-34] the IC50 [1] was under 3 nM.
`C[C@@H]1Cc2cc(ncn2)-c2cnc3ccc(nn23)N[C@H](C)c2cc(F)ccc2O1` [US20260028352, Example I-35] gave an IC50 [1] of under 3 nM and an IC50 [2] of under 5 nM.
In the case of `C[C@@H]1Cc2ccnc(c2)-c2cnc3ccc(nn23)N[C@H](C)c2cc(F)cnc2O1` [US20260028352, Example I-36], the IC50 [1] is reported as under 3 nM and the IC50 [2] is reported as under 5 nM.
For `C[C@@H]1Cc2ccnc(c2)-c2cnc3ccc(nn23)N2CCC[C@@H]2c2cc(F)ccc2O1` [US20260028352, Example I-37], the IC50 [1] was under 3 nM and the IC50 [2] was under 5 nM.
`C[C@@H]1Cc2ccnc(c2)-c2cnc3ccc(nn23)N2CCC[C@@H]2c2cc(F)cnc2O1` [US20260028352, Example I-38] gave an IC50 [1] of under 3 nM.
Work on `C[C@@H]1Cc2ccnc(c2)-c2cnc3ccc(nn23)N2C[C@@H](F)C[C@@H]2c2cc(F)ccc2O1` [US20260028352, Example I-39] yielded an IC50 [1] of under 3 nM and an IC50 [2] of under 5 nM.
In the case of `C[C@@H]1Cc2ccnc(c2)-c2cnc3ccc(nn23)N2C[C@@H](F)C[C@@H]2c2cc(F)cnc2O1` [US20260028352, Example I-40], the IC50 [1] is reported as under 3 nM.
With `C[C@H]1Nc2ccc3ncc(n3n2)-c2cc(ccn2)N2CC[C@H](C2)Oc2ccc(F)cc21` [US20260028352, Example I-41] the IC50 [1] was under 3 nM.
`C[C@H]1Nc2ccc3ncc(n3n2)-c2cc(ccn2)N2CC[C@@H](C2)Oc2ccc(F)cc21` [US20260028352, Example I-42] gave an IC50 [1] of under 3 nM.
Work on `C[C@H]1Nc2ccc3ncc(n3n2)-c2cc(ccn2)N2CCC[C@H](C2)Oc2ccc(F)cc21` [US20260028352, Example I-43] yielded an IC50 [1] of under 3 nM.
For `C[C@H]1Nc2ccc3ncc(n3n2)-c2cc(ccn2)N2CCC[C@@H](C2)Oc2ccc(F)cc21` [US20260028352, Example I-44], the IC50 [1] was under 3 nM and the IC50 [2] was under 5 nM.
`Fc1ccc2c(c1)[C@H]1CCCN1c1ccc3ncc(n3n1)-c1cc(ccn1)[C@H]1CCC[C@H]1O2` [US20260028352, Example I-45] gave an IC50 [1] of under 3 nM and an IC50 [2] of under 5 nM.
`Fc1ccc2c(c1)[C@H]1CCCN1c1ccc3ncc(n3n1)-c1cc(ccn1)[C@@H]1CCC[C@H]1O2` [US20260028352, Example I-46] was tested, and the IC50 [1] was under 3 nM and the IC50 [2] was under 5 nM.
For `Fc1ccc2c(c1)C1(CC1)Nc1ccc3ncc(n3n1)-c1cc(ccn1)CO2` [US20260028352, Example I-47], the IC50 [1] was under 3 nM and the IC50 [2] was under 5 nM.
For `CC1(C)Nc2ccc3ncc(n3n2)-c2cc(ccn2)COc2ccc(F)cc21` [US20260028352, Example I-48], the IC50 [1] was under 3 nM.
For `Fc1ccc2c(c1)[C@H]1C[C@H](F)CN1c1ccc3ncc(n3n1)-c1cc(ccn1)CO2` [US20260028352, Example I-50], the IC50 [1] was under 3 nM.
For `Fc1cnc2c(c1)[C@H]1CCCN1c1ccc3ncc(n3n1)-c1cc(ccn1)CO2` [US20260028352, Example I-51], the IC50 [1] was under 3 nM.
Work on `Fc1cnc2c(c1)[C@H]1C[C@H](F)CN1c1ccc3ncc(n3n1)-c1cc(ncn1)CO2` [US20260028352, Example I-52] yielded an IC50 [1] of under 3 nM and an IC50 [2] of under 5 nM.
Work on `Fc1ccc2c(c1)[C@H]1CCCN1c1ccc3ncc(n3n1)-c1cc(ccn1)CCO2` [US20260028352, Example I-53] yielded an IC50 [1] of under 3 nM.
`Fc1cnc2c(c1)[C@H]1C[C@H](F)CN1c1ccc3ncc(n3n1)-c1cc(ccn1)CCO2` [US20260028352, Example I-54] gave an IC50 [1] of under 3 nM.
For `Fc1cnc2c(c1)[C@H]1CCCN1c1ccc3ncc(n3n1)-c1cc(ccn1)CCO2` [US20260028352, Example I-55], the IC50 [1] was under 3 nM.
Compound `Fc1ccc2c(c1)[C@H]1C[C@H](F)CN1c1ccc3ncc(n3n1)-c1cc(ccn1)CCO2` [US20260028352, Example I-56] has an IC50 [1] of under 3 nM.
With `Fc1ccc2c(c1)[C@H]1C[C@H](F)CN1c1ccc3ncc(n3n1)-c1cc(ncn1)CO2` [US20260028352, Example I-58] the IC50 [1] was under 3 nM.
`Fc1cnc2c(c1)[C@H]1CCCN1c1ccc3ncc(n3n1)-c1cc(ncn1)CO2` [US20260028352, Example I-59] showed an IC50 [1] of under 3 nM.
In the case of `Fc1cnc2c(c1)[C@H]1C[C@H](F)CN1c1ccc3ncc(n3n1)-c1cc(ccn1)CO2` [US20260028352, Example I-60], the IC50 [1] is reported as under 3 nM.
In the case of `Fc1ccc2c(c1)[C@H]1CCCN1c1ccc3ncc(n3n1)-c1nccc(n1)CO2` [US20260028352, Example I-61], the IC50 [1] is reported as under 3 nM and the IC50 [2] is reported as under 5 nM.
`Fc1cnc2c(c1)[C@H]1C[C@H](F)CN1c1ccc3ncc(n3n1)-c1cc(cnn1)CO2` [US20260028352, Example I-62] gave an IC50 [1] of under 3 nM and an IC50 [2] of under 5 nM.
For `Fc1cnc2c(c1)[C@H]1CCCN1c1ccc3ncc(n3n1)-c1nccc(n1)CO2` [US20260028352, Example I-63], the IC50 [1] was under 3 nM.
Work on `Fc1cnc2c(c1)[C@H]1C[C@H](F)CN1c1ccc3ncc(n3n1)-c1nccc(n1)CO2` [US20260028352, Example I-64] yielded an IC50 [1] of under 3 nM.
`Fc1ccc2c(c1)[C@H]1CCCN1c1ccc3ncc(n3n1)-c1cc(cnn1)CO2` [US20260028352, Example I-65] gave an IC50 [1] of under 3 nM and an IC50 [2] of under 5 nM.
With `Fc1cnc2c(c1)[C@H]1CCCN1c1ccc3ncc(n3n1)-c1cc(cnn1)CO2` [US20260028352, Example I-67] the IC50 [1] was under 3 nM.
`Fc1ccc2c(c1)[C@H]1C[C@H](F)CN1c1ccc3ncc(n3n1)-c1cc(cnn1)CO2` [US20260028352, Example I-68] gave an IC50 [1] of under 3 nM.
`Fc1ccc2c(c1)[C@H]1CCCN1c1ccc3ncc(n3n1)-c1cc(ncn1)CO2` [US20260028352, Example I-69] was tested, and the IC50 [1] was under 3 nM.
Work on `Fc1ccc2c(c1)[C@H]1C[C@H](F)CN1c1ccc3ncc(n3n1)-c1cc(ncn1)CCO2` [US20260028352, Example I-70] yielded an IC50 [1] of under 3 nM.
With `Fc1cnc2c(c1)[C@H]1CCCN1c1ccc3ncc(n3n1)-c1cc(ncn1)CCO2` [US20260028352, Example I-71] the IC50 [1] was under 3 nM.
In the case of `Fc1cnc2c(c1)[C@H]1C[C@H](F)CN1c1ccc3ncc(n3n1)-c1cc(ncn1)CCO2` [US20260028352, Example I-72], the IC50 [1] is reported as under 3 nM.
`C[C@H]1Nc2ccc3ncc(n3n2)-c2cc(ncn2)CCOc2ncc(F)cc21` [US20260028352, Example I-73] showed an IC50 [1] of under 3 nM and an IC50 [2] of under 5 nM.
For `C[C@H]1Nc2ccc3ncc(n3n2)-c2cc(ncn2)CCOc2ccc(F)cc21` [US20260028352, Example I-74], the IC50 [1] was under 3 nM and the IC50 [2] was under 5 nM.
In the case of `C[C@H]1Nc2ccc3ncc(n3n2)-c2cc(ccn2)CCOc2ncc(F)cc21` [US20260028352, Example I-75], the IC50 [1] is reported as under 3 nM.
`C[C@H]1Nc2ccc3ncc(n3n2)-c2cc(ccn2)CCOc2ccc(F)cc21` [US20260028352, Example I-76] gave an IC50 [1] of under 3 nM and an IC50 [2] of under 5 nM.
In the case of `C[C@H]1Nc2ccc3ncc(n3n2)-c2cc(ncn2)COc2ncc(F)cc21` [US20260028352, Example I-77], the IC50 [1] is reported as under 3 nM.
`C[C@H]1Nc2ccc3ncc(n3n2)-c2cc(ncn2)COc2ccc(F)cc21` [US20260028352, Example I-78] gave an IC50 [1] of under 3 nM and an IC50 [2] of under 5 nM.
Compound `C[C@H]1Nc2ccc3ncc(n3n2)-c2cc(cnn2)COc2ncc(F)cc21` [US20260028352, Example I-79] has an IC50 [1] of under 3 nM and an IC50 [2] of under 5 nM.
In the case of `C[C@H]1Nc2ccc3ncc(n3n2)-c2nccc(n2)COc2ccc(F)cc21` [US20260028352, Example I-80], the IC50 [1] is reported as under 3 nM.
For `C[C@H]1Nc2ccc3ncc(n3n2)-c2nccc(n2)COc2ncc(F)cc21` [US20260028352, Example I-81], the IC50 [1] was under 3 nM and the IC50 [2] was under 5 nM.
In the case of `C[C@H]1Nc2ccc3ncc(n3n2)-c2cc(cnn2)COc2ccc(F)cc21` [US20260028352, Example I-82], the IC50 [1] is reported as under 3 nM and the IC50 [2] is reported as under 5 nM.
`C[C@H]1Nc2ccc3ncc(n3n2)-c2nccc(n2)CCOc2ncc(F)cc21` [US20260028352, Example I-83] showed an IC50 [1] of under 3 nM.
`C[C@H]1Nc2ccc3ncc(n3n2)-c2nccc(n2)CCOc2ccc(F)cc21` [US20260028352, Example I-84] showed an IC50 [1] of under 3 nM.
`Fc1ccc2c(c1)[C@H]1CCCN1c1ccc3ncc(n3n1)-c1cc(cnn1)CCO2` [US20260028352, Example I-85] was tested, and the IC50 [1] was under 3 nM and the IC50 [2] was under 5 nM.
`Fc1ccc2c(c1)[C@H]1C[C@H](F)CN1c1ccc3ncc(n3n1)-c1cc(cnn1)CCO2` [US20260028352, Example I-86] gave an IC50 [1] of under 3 nM.
`Fc1cnc2c(c1)[C@H]1CCCN1c1ccc3ncc(n3n1)-c1cc(cnn1)CCO2` [US20260028352, Example I-87] showed an IC50 [1] of under 3 nM and an IC50 [2] of under 5 nM.
With `Fc1cnc2c(c1)[C@H]1C[C@H](F)CN1c1ccc3ncc(n3n1)-c1cc(cnn1)CCO2` [US20260028352, Example I-88] the IC50 [1] was under 3 nM.
`Fc1ccc2c(c1)[C@H]1CCCN1c1ccc3ncc(n3n1)-c1nccc(n1)CCO2` [US20260028352, Example I-92] gave an IC50 [1] of under 3 nM.
Work on `Fc1ccc2c(c1)[C@H]1C[C@H](F)CN1c1ccc3ncc(n3n1)-c1nccc(n1)CCO2` [US20260028352, Example I-93] yielded an IC50 [1] of under 3 nM.
Work on `Fc1cnc2c(c1)[C@H]1CCCN1c1ccc3ncc(n3n1)-c1nccc(n1)CCO2` [US20260028352, Example I-94] yielded an IC50 [1] of under 3 nM.
In the case of `C[C@H]1Cc2ccnc(n2)-c2cnc3ccc(nn23)N2C[C@@H](F)C[C@@H]2c2cc(F)cnc2O1` [US20260028352, Example I-96], the IC50 [1] is reported as under 3 nM and the IC50 [2] is reported as under 5 nM.
